{"source": "patent US6303621A", "about": "“Method for treating cancers using a diiodo thyronine analogue having no significant hormonal activity and a vinca alkaloid and compositions comprising the same” (priority 1999, dated 2001)", "key": {"human cancer cells [1]": {"system": "human cancer cells", "experiment": "Cytostatic / cytocidal activity of DIME analogues on human cancer cells", "assay_type": "cell-based", "text": "Such tests may also screen for the ability of a particular compound to inhibit malignant tumor cell growth in vitro or in vivo or abolish tumorigenicity of malignant cells.\nAs will be appreciated by the skilled artisan, many varieties of malignant tumor cell cultures and cell lines may be used to screen for activity, including but not limited to HL-60, HT-144, E-ras-20, DU-145, MDA-168, MCF-7, 855-2 and MDA-MB-231. Of course, other in vitro and/or in vivo assays as will be apparent to the skilled artisan to screen for anti-tumor and/or anti-cancer activity may also be employed to identify effective diiodo thyronine analogues useful in the present invention."}, "malignant tumor growth": {"system": "malignant tumor growth", "experiment": "Activity of DIME in vivo (general statement)"}, "human cancer cells [2]": {"system": "human cancer cells", "conditions": "studies set forth in U.S. Ser. Nos. 08/655,267 and 08/833,272; cited from earlier work"}, "leukemias": {"system": "leukemias", "conditions": "in vivo; cited from earlier work"}, "[3]": {"conditions": "vindesine versus vincristine; cited from earlier work"}, "[4]": {"system": "MDA-MB-231 human mammary cancer cells", "experiment": "Cell growth kinetics, median effect and isobologram", "assay_type": "cell-based", "conditions": "0.75 μM DIME (or DIPE) or 1-2 nM vincristine alone", "protocol": "(§1) c. MDA-MB-231 human mammary cancer cells were cultured and treated as reported previously by Mendeleyev et al., International Journal of Oncology 10:689-695 (1997) and Zhen et al., International Journal of Oncology 10:689-695 (1997). For the assay of cell growth kinetics cells, were seeded into 2cm^2 wells (24-well plates) at a density of 8×10^3 /cm^2 at the time of seeding. Vincristine (or vinblastine) and DIME (or DIPE) were added from DMSO dilutions (1-2 μl/ 500 μl culture mediim) either from separate drug solutions or for the construction of median effect plot (FIG. 1) from a pre-made mixture of both drugs (e.g. 0.75 μM DIME+2 nM vincristine) and simultaneous dilutions thereof (Chou et al. Eur. J. Biochem. 115: 207-216 (1981)). The cultures were incubated at 37° C. for 4 days and growth rates, leading to near confluency in drug-free controls, were monitored by cell counting in a haemocytometer after detachment by trypsin treatment Mendeleyev et al., International Journal of Oncology 10:689-695 (1997) and Zhen et al., International Journal of Oncology 10:689-695 (1997). Mathematical analysis of growth curves and median effects and isobolograms were carried out by published procedures (Chou et al. J. Theor. Biol. 65: 345-356 (1977), Chou et al. Eur. J. Biochem. 115: 207-216 (1981) and Chou et al. Adv. in Enzyme Regulation 22:27-55 (1984)) and error bars indicate SD=Σx^2 +L -(Σx)^2 /n where X is the numerical results with n=3-5.\nKinetics of vincristine-DIME interactions: Interpretation of conventional isobolograms, consisting of plots of I50 values of two drugs alone and in combination is valid only if it is proven kinetically that both drugs bind at mutually exclusive sites.\nIsobologram analysis of the combined action of DIME and vincristine is illustrated in FIG. 2, and it is evident that the action of the two drugs in combination exceed an additive effect, which is depicted by a concave curve, contrasting with additive action, which would display a straight line connecting the I50 values for each drug alone (dotted line in FIG. 2). […]"}, "[5]": {"system": "MDA-MB-231 human mammary cancer cells", "experiment": "Colony formation (cell killing)", "assay_type": "cell-based", "conditions": "FIG. 4a", "protocol": "as §1\ne. Colony formation was quantitated as reported by. Each colony of 50 cells is the outgrowth from one cell, plated 10 days before colony counting."}, "tubulin α+β": {"system": "tubulin α+β", "experiment": "Inhibition of tubulin polymerization / assembly of microtubules", "assay_type": "biochemical", "conditions": "FIG. 4b", "protocol": "The optical tests were performed as reported by Buki et al., International Journal of Oncology 10:911-913 (1997)."}, "[6]": {"system": "esterase activity in certain tumor cells", "experiment": "Stability to hydrolysis (esterase)", "conditions": "versus DIME"}, "microtubules": {"system": "microtubules", "experiment": "Microtubule binding"}, "thyroid": {"system": "thyroid", "conditions": "rat, in vivo; cited from earlier work"}, "tadpole metamorphosis": {"system": "tadpole metamorphosis", "conditions": "in vivo; cited from earlier work"}, "[7]": {"system": "non-malignant mouse pituitary adenoma", "conditions": "in vivo; cited from earlier work"}, "[8]": {"system": "metaphase arrest in cancer cells", "experiment": "Metaphase block (mitotic block)", "assay_type": "cell-based", "conditions": "FIG. 7", "text": "Metaphase was quantitated as reported by Mendeleyev et al., International Journal of Oncology 10:689-695 (1997).\nSince vincristine and vinblastine were equivalent here we illustrate only DIME-vinblastine interaction on mitotic block."}, "[9]": {"system": "Ras and apoptosis-regulating kineses (ASK1), pathways", "conditions": "Wang et al.; cited from earlier work"}, "caspase 3 [10]": {"system": "caspase 3", "experiment": "Caspase 3 assay in drug-treated cells", "assay_type": "cell-based, human", "conditions": "0.75 μM DIME or 2 nM vincristine alone, 3 days", "protocol": "g. Caspase 3 assay. MDA 231 cells were grown for 3 days in the absence of drugs (control) or in the presence of 0.75 μM DIME, or in the presence of 2 nM vincristine, or in the presence of both drugs. After harvesting and washing the cells with PBS, they were lysed in a lysis buffer (10 mM HEPES, 5 mM DTT, 2 mM EDTA, 1 mM PMSF, 0.1% CHAPS, 20 μg/ml each of aprotinin, leupeptin, pepstatin, pH 7.4), and were frozen and thawed 3 times. […] Each cell extract was incubated at room temperature with and without preincubation with the caspase inactivator DEVD-CMK. The difference of fluorescence was plotted against time. The fluorescence was calibrated with the fluorophore AFC."}, "caspase 3 [11]": {"system": "caspase 3", "experiment": "Caspase 3 in cell-free extracts treated with drugs", "assay_type": "biochemical", "conditions": "results not shown"}}, "note": "“Also recorded” adds a separate entry of the source.", "data": [{"smiles": "CCOC(=O)c1cc(I)c(Oc2ccc(OC)cc2)c(I)c1", "note": "[Compound 5, Ethyl 3,5-diiodo-4-(4'-methoxyphenoxy)benzoate]", "values": [{"measurement": "Cytostatic and cytocidal activity in cellular assays", "setting": "human cancer cells [1]", "value": "completely inactive"}, {"measurement": "Activity in vivo", "setting": "malignant tumor growth", "value": "completely inactive"}]}, {"smiles": "COC(=O)c1cc(I)c(Oc2ccc(OC)cc2Cl)c(I)c1", "note": "[Compound 14, Methyl 3,5-diiodo-4-(2'-chloro-4'-methoxyphenoxy)benzoate]", "values": [{"measurement": "maximal inhibitory action on the growth of human cancer cells as compared to DIME", "setting": "human cancer cells [2]", "value": "about 25%"}]}, {"smiles": "CC[C@]1(O)C[C@@H]2CN(CCc3c([nH]c4ccccc34)[C@@](C(=O)OC)(c3cc4c(cc3OC)N(C)[C@H]3[C@@](O)(C(N)=O)[C@H](O)[C@]5(CC)C=CCN6CC[C@]43[C@@H]65)C2)C1", "note": "[vindesine, 4-desacetyl vinblastine C-3 carboxamide]", "values": [{"measurement": "Activity in leukemias", "setting": "leukemias", "value": "active in certain leukemias"}, {"measurement": "Neurotoxicity in humans", "setting": "[3]", "value": "less neurotoxicity than does vincristine"}]}, {"smiles": "COc1ccc(Oc2c(I)cc(C(C)=O)cc2I)cc1", "note": "[DIPE, 1-[3,5-diiodo-4-(4'-methoxyphenoxy)-phenyl]-ethanone]", "values": [{"measurement": "Growth rate with single drug", "setting": "[4]", "value": "do not elicit effects that exceed the SD of average cell growth rates"}, {"measurement": "Inhibition of colony formation, DIME versus DIPE", "setting": "[5]", "value": "equivalency; also recorded: Equivalent effectivity"}, {"measurement": "Inhibition of assembly of microtubules, DIME versus DIPE", "setting": "tubulin α+β", "value": "equivalency; also recorded: Inhibitory effects"}, {"measurement": "Stability to hydrolysis", "setting": "[6]", "value": "non-hydrolyzable"}, {"measurement": "Binding to microtubules", "setting": "microtubules", "value": "bind to microtubules"}]}, {"smiles": "NC(Cc1cc(I)c(Oc2cc(I)c(O)c(I)c2)c(I)c1)C(=O)O", "note": "(stereo not shown) [thyroxine, reference compound]", "values": [{"measurement": "Uptake of iodine by the thyroid", "setting": "thyroid", "value": "suppresses uptake of iodine by the thyroid"}, {"measurement": "Metabolic or cell differentiating activity (tadpole metamorphosis)", "setting": "tadpole metamorphosis", "value": "induces cell differentiation"}, {"measurement": "Growth of non-malignant mouse pituitary tumor", "setting": "[7]", "value": "depress growth"}]}, {"smiles": "CC[C@]1(O)C[C@@H]2CN(CCc3c([nH]c4ccccc34)[C@@](C(=O)OC)(c3cc4c(cc3OC)N(C)[C@H]3[C@@](O)(C(=O)OC)[C@H](OC(C)=O)[C@]5(CC)C=CCN6CC[C@]43[C@@H]65)C2)C1", "note": "[vinblastine]", "values": [{"measurement": "Combined action with DIME on metaphase arrest, vincristine versus vinblastine", "setting": "[8]", "value": "equivalent"}]}, {"smiles": "CC(=O)O[C@H]1C(=O)[C@@]2(C)[C@H]([C@H](OC(=O)c3ccccc3)[C@]3(O)C[C@H](OC(=O)[C@H](O)[C@@H](NC(=O)c4ccccc4)c4ccccc4)C(C)=C1C3(C)C)[C@]1(OC(C)=O)CO[C@@H]1C[C@@H]2O", "note": "[taxol]", "values": [{"measurement": "Activation of Ras and ASK1 pathways", "setting": "[9]", "value": "can activate both Ras and apoptosis-regulating kineses (ASK1), pathways"}]}, {"smiles": "CC[C@]1(O)C[C@H]2CN(CCc3c([nH]c4ccccc34)[C@@](C(=O)OC)(c3cc4c(cc3OC)N(C=O)[C@H]3[C@@](O)(C(=O)OC)[C@H](OC(C)=O)[C@]5(CC)C=CCN6CC[C@]43[C@@H]65)C2)C1", "note": "[vincristine, reference compound]", "values": [{"measurement": "Growth rate with single drug", "setting": "[4]", "value": "do not elicit effects that exceed the SD of average cell growth rates; also recorded: fall within SD values"}, {"measurement": "Combined action with DIME on metaphase arrest, vincristine versus vinblastine", "setting": "[8]", "value": "equivalent"}, {"measurement": "Activation of caspase 3, single drug", "setting": "caspase 3 [10]", "value": "small rate of caspase 3 activity"}, {"measurement": "Caspase 3 increase in cell-free extracts", "setting": "caspase 3 [11]", "value": "do not show an increase in caspase 3"}, {"measurement": "Activity in leukemias", "setting": "leukemias", "value": "most active and useful agent in the treatment of leukemias"}]}, {"smiles": "CCCOc1ccc(Oc2c(I)cc(C(=O)OC)cc2I)cc1", "note": "[Compound 3]", "values": [{"measurement": "Cytostatic and cytocidal activity in cellular assays", "setting": "human cancer cells [1]", "value": "completely inactive"}, {"measurement": "Activity in vivo", "setting": "malignant tumor growth", "value": "completely inactive"}]}]}
